Experimental data reported in patent US20190256822A1, “HEPATIC CELL LINE RESISTANT TO DIMETHYL SULFOXIDE, CELL CULTURE AND USES THEREOF” (Academisch Medisch Centrum, priority 2016, published 2019).
Blank lines part the entries; values can stand above or below the molecule they belong to.

Legend:
[1] = test system: CAR target gene CYP2B6; experiment: CYP induction: CYP2B6 transcript levels after CITCO (CAR inducer); type: cell-based, human
[2] = test system: HepaRG cells; experiment: Lactate production after culture with DMSO; type: cell-based, human
Procedure: The cultures were washed twice with PBS and then exposed to phenol-red free HepaRG culture medium with 1.5 mM ^15NH4Cl (Sigma), 2.27 mM D-galactose (Sigma), and 2 mM L-lactate (Sigma) without DMSO. Medium samples were taken after 45 min, 8 and 24 hours of incubation. Production or elimination rates were established by calculating the concentration changes of different compounds, as indicated below, in the test media in time, and were corrected for protein content per well.

[3] = test system: HepG2 cells; experiment: Mitochondrial content (mitochondrial to nuclear DNA ratio) after culture with DMSO; type: cell-based, human; conditions: HepG2-CAR cultured with DMSO vs HepG2-CAR without DMSO
From the text: (§1) To assess the cellular mitochondrial content the inventors determined the mitochondrial/nuclear DNA ratio. Total DNA was isolated with the QIAamp DNA Mini Blood kit (QIAgen) according to manufacturer's instructions.
(§2) For a list of PCR-primers used, see supplementary table 1.

[4] = test system: HepaRG cells; experiment: as above; type: cell-based, human; conditions: vs cells not cultured in presence of DMSO
From the text: as §1, §2

[5] = test system: CAR mRNA; experiment: CAR mRNA levels after culture with DMSO; type: cell-based, human
Procedure: (§3) RT-qPCR measurements were performed on a Lightcycler 480 (Roche) with Sensifast SYBR Green master mix (Bioline) according to manufacturer's instructions. […] Normalized mRNA levels are expressed as a percentage of the mean mRNA levels of two human liver samples normalized to 18S rRNA. The human liver samples were obtained from two female patients with liver adenoma and no elevated liver damage. […] The samples were taken after obtaining written informed consent and the procedure was approved by the Academic Medical Center's committee on human experimentation (protocol number 03/024).

[6] = test system: HepaRG cells; conditions: human, 14 days, 1.7 %
Procedure: For testing, the cells were fully matured during 28 days in 12- or 24-well culture plates. […] For testing the effect of CAR overexpression HepaRG and HepaRG-CAR cultures of similar passage (±1 passage) were compared, between passage 15-19.
(§4) Protein levels of cell cultures were assessed with the Bio-Rad Protein Assay (Bio-Rad, Hercules, Calif.) according to manufacturer's instructions after lysis in 0.2 M NaOH for 1 h at 37° C.

[7] = test system: HepG2 cells; conditions: human, 1.7 %
Procedure: HepG2 cells were maintained in T75 flasks until 80-90% confluency after which they were propagated in new flasks. The cells were propagated similarly as HepaRG cells. HepG2 cells were seeded at a 1:3-1:4 ratio in 12 or 24 well plates.
as §4

[8] = test system: HepaRG monolayers; conditions: cited from earlier work
[9] = test system: AHR target gene CYP1A2; conditions: 24 h, 40 μM
Procedure: as §3
Transcript levels of CYP genes were compared in cultures with and without induction.

[10] = test system: HepaRG+/-CAR monolayer cultures
Procedure: At the 0 h time point the cells were incubated for 5 s to correct for non-specific binding of the added compounds to the cells and the culture plate. Medium samples of the indicated time points were immediately frozen at −80° C. Prior to HPLC analysis samples were thawed on ice and deproteinized with the addition of 4 volumes of acetonitrile (for prednisolone and theophylline), vacuum evaporated and dissolved in water. Warfarin samples were instead deproteinized with 2 volumes of methanol and spun down for 5 minutes at 20000 g at 4° C. Supernatants were used for HPLC analysis.
Reverse-phase HPLC detection was done as follows. Deproteinized samples (100 μl for prednisolone and theophylline, 30 μl for warfarin) were applied to a Hypersil C18, 3 μm, 15 cm HPLC column (Thermo Scientific). Starting eluent consisted of 6.8 mM ammoniumformate (pH 3.9), followed by several steps of linear gradients to different concentrations of acetonitrile (ACN) (Biosolve, Valkenswaard, The Netherlands). […] Detection of prednisolone was performed at λabs=254 nm, theophylline at λabs=270 nm, warfarin at λexc=310 nm/λem=390 nm. Quantification was done by using calibration curves of prednisolone, theophylline, or warfarin.

SMILES: Clc1ccc(-c2nc3sccn3c2/C=N/OCc2ccc(Cl)c(Cl)c2)cc1 [CITCO]
fold induction of CYP2B6 transcript ([1]; CITCO 1 μM, 24 h, control and modified HepaRG monolayers, independent of DMSO treatment): 4.2-6.1 ×
fold induction of CYP2B6 transcript ([1]; control HepaRG BALIAD culture without DMSO, CITCO 24 h): 6.5 ×
fold induction of CYP2B6 transcript ([1]; modified HepaRG BALIAD culture without DMSO, CITCO 24 h): 3.6 ×
total CYP2B6 mRNA level after induction, of human liver ([1]; modified HepaRG BALIAD, CITCO 24 h): ≤ 1023%
total CYP2B6 transcript level after induction, of human liver ([1]; modified HepaRG monolayer, CITCO 24 h): ≤ 430%

SMILES: C[C@]12C=CC(=O)C=C1CC[C@@H]1[C@@H]2[C@@H](O)C[C@@]2(C)[C@H]1CC[C@]2(O)C(=O)CO [prednisolone]
clearance rate in HepaRG-CAR cultured with DMSO compared to all other conditions [10]: cleared at an increased rate

SMILES: Cn1c(=O)c2[nH]cnc2n(C)c1=O [theophylline, theophylline anhydrous]
clearance [10]: could not reliably observe any clearance

SMILES: CC(=O)CC(c1ccccc1)c1c(O)c2ccccc2oc1=O (centres unmarked) [warfarin]
clearance rate in HepaRG-CAR cultured with DMSO compared to all other conditions [10]: cleared at an increased rate
period of linear clearance ([10]; human, 1 μM): 24 to 48 h

The next lines start with results.

reduction of protein content [6]: 40%
reduction of total protein content [6]: 19%
reduction of total protein content [7]: 15%-18
SMILES: C[S+](C)[O-] [DMSO, dimethyl sulfoxide]
reduction of lactate production ([2]; HepaRG-CAR monolayer cultured with DMSO vs control cells without DMSO): 92%
reduction of lactate production ([2]; control HepaRG monolayer cultured with DMSO vs control cells without DMSO): 57%
increase of mitochondrial to nuclear DNA ratio [3]: 1.3 ×
increase of mitochondrial to nuclear DNA ratio ([4]; HepaRG-CAR monolayer): 2 ×
increase of mitochondrial to nuclear DNA ratio ([4]; unmodified HepaRG monolayer): 1.8 ×
CAR mRNA level, of human liver ([5]; control HepaRG cells cultured with DMSO (5.3% without)): 15%
CAR mRNA level, of human liver ([5]; modified HepaRG cells cultured with DMSO (108% without)): 208%
increase of cell leakage [8]: 3- to 4 fold
reduction of total cellular protein content [8]: more than 50%

total CYP1A2 mRNA level after induction, of human liver [9]: ≤ 31%
total CYP1A2 transcript level after induction, of human liver [9]: ≤ 23%
SMILES: COc1ccc2[nH]c([S+]([O-])Cc3ncc(C)c(OC)c3C)nc2c1 (centres unmarked) [omeprazole]
